For the assay, the target named is MCH receptor (Homo sapiens, UniProt Q99705). The assay can be described thus: High throughput functional screening FLIPR/FDSS6000: inhibition of MCH-evoked intracellular Ca2+ changes. The class given is cell-based. The note with it: class by percent of control at 10^-7 M or IC50. Put shortly: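 Antagonism is measured as inhibition of the intracellular calcium rise triggered by 50 nM MCH in cells bearing a constitutively active, non-endogenous form of the receptor. Cells are dye-loaded with Fluo4-AM and exposed to compound for 3 min at 37° C before agonist addition.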

Among the data in patent publication US20070010671A1, “Novel quinazoline derivatives and methods of treatment related to the use thereof” (priority 2003, published 2007) are class values, retold here.

On to `C/C=C/CNC(=S)N[C@H]1CC[C@@H](Nc2nc(N(C)C)c3ccccc3n2)CC1` [compound 327], for which the class was 3 (Class 3: The value of percent of control at 10^−7 M was more than 60% or the value of IC50 was more than 200 nM.).

For the compound `CN(C)c1nc(N[C@H]2CC[C@@H](NC(=S)NC3CCCCCC3)CC2)nc2ccccc12` [compound 328, N-cycloheptyl-N′-(cis-4-{[4-(dimethylamino)quinazolin-2-yl]amino}cyclohexyl)thiourea], the class is listed as 2 (Class 2: The value of percent of control at 10^−7 M was from 40% to 60% or the value of IC50 was from 50 nM to 200 nM.). For the compound `C[C@@H](NC(=S)N[C@H]1CC[C@@H](Nc2nc(N(C)C)c3ccccc3n2)CC1)c1ccccc1` [compound 329, N-(cis-4-{[4-(dimethylamino)quinazolin-2-yl]amino}cyclohexyl)-N′-[(1R)-1-phenylethyl]thiourea], the class is listed as 1 (Class 1: The value of percent of control at 10^−7 M was less than 40% or the value of IC50 was less than 50 nM.).

For the compound `CCCCOC(=O)c1ccccc1NC(=O)N[C@H]1CC[C@@H](Nc2nc(N(C)C)c3ccccc3n2)CC1` [compound 330], the class is listed as 3 (Class 3: The value of percent of control at 10^−7 M was more than 60% or the value of IC50 was more than 200 nM.). On to `COC(=O)c1cc(NC(=O)N[C@H]2CC[C@@H](Nc3nc(N(C)C)c4ccccc4n3)CC2)cc(C(=O)OC)c1` [compound 331], for which the class was 3 (Class 3: The value of percent of control at 10^−7 M was more than 60% or the value of IC50 was more than 200 nM.). Turning to `CN(C)c1nc(N[C@H]2CC[C@@H](NC(=O)Nc3ccc(OC(F)(F)F)cc3)CC2)nc2ccccc12` [compound 332], the class is recorded as 3 (Class 3: The value of percent of control at 10^−7 M was more than 60% or the value of IC50 was more than 200 nM.). The result for `Cc1cc(Br)cc(C)c1NC(=O)N[C@H]1CC[C@@H](Nc2nc(N(C)C)c3ccccc3n2)CC1` [compound 333, N-(4-bromo-2,6-dimethylphenyl)-N′-(cis-4-{[4-(dimethylamino)quinazolin-2-yl]amino}cyclohexyl)urea] reads 1 (Class 1: The value of percent of control at 10^−7 M was less than 40% or the value of IC50 was less than 50 nM.). The result for `Cc1cc(Br)ccc1NC(=O)N[C@H]1CC[C@@H](Nc2nc(N(C)C)c3ccccc3n2)CC1` [compound 334] reads 1 (Class 1: The value of percent of control at 10^−7 M was less than 40% or the value of IC50 was less than 50 nM.); that for `CN(C)c1nc(N[C@H]2CC[C@@H](NC(=O)Nc3ccc4c(c3)C(F)(F)OC(F)(F)O4)CC2)nc2ccccc12` [compound 335], 3 (Class 3: The value of percent of control at 10^−7 M was more than 60% or the value of IC50 was more than 200 nM.). On to `CN(C)c1nc(N[C@H]2CC[C@@H](NC(=O)NCCc3cccs3)CC2)nc2ccccc12` [compound 337, N-(cis-4-{[4-(dimethylamino)quinazolin-2-yl]amino}cyclohexyl)-N′-[2-(2-thienyl)ethyl]urea], for which the class was 2 (Class 2: The value of percent of control at 10^−7 M was from 40% to 60% or the value of IC50 was from 50 nM to 200 nM.). For `CN(C)c1nc(N[C@H]2CC[C@@H](NC(=O)Nc3ccc4c(c3)OCCO4)CC2)nc2ccccc12` [compound 338, N-(2,3-dihydro-1,4-benzodioxin-6-yl)-N′-(cis-4-{[4-(dimethylamino)quinazolin-2-yl]amino}cyclohexyl)urea], the class was 1 (Class 1: The value of percent of control at 10^−7 M was less than 40% or the value of IC50 was less than 50 nM.). Consider `CC(C)c1cc(Br)c(NC(=O)N[C@H]2CC[C@@H](Nc3nc(N(C)C)c4ccccc4n3)CC2)c(Br)c1` [compound 339, N-(2,6-dibromo-4-isopropylphenyl)-N′-(cis-4-{[4-(dimethylamino)quinazolin-2-yl]amino}cyclohexyl)urea], for which the class was 1 (Class 1: The value of percent of control at 10^−7 M was less than 40% or the value of IC50 was less than 50 nM.).

For `CN(C)c1nc(N[C@H]2CC[C@@H](NC(=O)Nc3ccccc3C#N)CC2)nc2ccccc12` [compound 340], the class was 3 (Class 3: The value of percent of control at 10^−7 M was more than 60% or the value of IC50 was more than 200 nM.). The result for `CN(C)c1nc(N[C@H]2CC[C@@H](NC(=O)Nc3cccs3)CC2)nc2ccccc12` [compound 341] reads 3 (Class 3: The value of percent of control at 10^−7 M was more than 60% or the value of IC50 was more than 200 nM.); that for `COc1ccc(NC(=O)N[C@H]2CC[C@@H](Nc3nc(N(C)C)c4ccccc4n3)CC2)cc1OC1CCCC1` [compound 342, N-[3-(cyclopentyloxy)-4-methoxyphenyl]-N′-(cis-4-{[4-(dimethylamino)quinazolin-2-yl]amino}cyclohexyl)urea], 1 (Class 1: The value of percent of control at 10^−7 M was less than 40% or the value of IC50 was less than 50 nM.). The result for `CN(C)c1nc(N[C@H]2CC[C@@H](NC(=O)Nc3ccc4c(c3)OCCCO4)CC2)nc2ccccc12` [compound 343, N-(3,4-dihydro-2H-1,5-benzodioxepin-7-yl)-N′-(cis-4-{[4-(dimethylamino)quinazolin-2-yl]amino}cyclohexyl)urea] reads 1 (Class 1: The value of percent of control at 10^−7 M was less than 40% or the value of IC50 was less than 50 nM.); that for `CN(C)c1nc(N[C@H]2CC[C@@H](NC(=O)Nc3ccsc3)CC2)nc2ccccc12` [compound 344], 3 (Class 3: The value of percent of control at 10^−7 M was more than 60% or the value of IC50 was more than 200 nM.). The result for `CN(C)c1nc(N[C@H]2CC[C@@H](NC(=O)Nc3ccc(C(C)(C)C)cc3)CC2)nc2ccccc12` [compound 345] reads 3 (Class 3: The value of percent of control at 10^−7 M was more than 60% or the value of IC50 was more than 200 nM.); that for `CCCCc1ccc(NC(=O)N[C@H]2CC[C@@H](Nc3nc(N(C)C)c4ccccc4n3)CC2)c(C)c1` [compound 346], 1 (Class 1: The value of percent of control at 10^−7 M was less than 40% or the value of IC50 was less than 50 nM.); that for `Cc1cc(NC(=O)N[C@H]2CC[C@@H](Nc3nc(N(C)C)c4ccccc4n3)CC2)c(C(F)(F)F)o1` [compound 347, N-(cis-4-{[4-(dimethylamino)quinazolin-2-yl]amino}cyclohexyl)-N′-[5-methyl-2-(trifluoromethyl)-3-furyl]urea], 1 (Class 1: The value of percent of control at 10^−7 M was less than 40% or the value of IC50 was less than 50 nM.). On to `CN(C)c1nc(N[C@H]2CC[C@@H](NC(=O)Nc3ccc(-c4ccccc4)s3)CC2)nc2ccccc12` [compound 348], for which the class is 3 (Class 3: The value of percent of control at 10^−7 M was more than 60% or the value of IC50 was more than 200 nM.). As for `CN(C)c1nc(N[C@H]2CC[C@@H](NC(=O)Nc3cc(F)cc4c3OCOC4)CC2)nc2ccccc12` [compound 349, N-(cis-4-{[4-(dimethylamino)quinazolin-2-yl]amino}cyclohexyl)-N′-(6-fluoro-4H-1,3-benzodioxin-8-yl)urea], the class is reported as 2 (Class 2: The value of percent of control at 10^−7 M was from 40% to 60% or the value of IC50 was from 50 nM to 200 nM.). The result for `CN(C)c1nc(N[C@H]2CC[C@@H](NC(=O)NC3CCN(C(=O)OCc4ccccc4)CC3)CC2)nc2ccccc12` [compound 350] reads 3 (Class 3: The value of percent of control at 10^−7 M was more than 60% or the value of IC50 was more than 200 nM.); that for `CN(C)c1ccc(NC(=O)N[C@H]2CC[C@@H](Nc3nc(N(C)C)c4ccccc4n3)CC2)cc1` [compound 351], 3 (Class 3: The value of percent of control at 10^−7 M was more than 60% or the value of IC50 was more than 200 nM.); that for `CN(C)c1nc(N[C@H]2CC[C@@H](NC(=O)Nc3cc(Cl)nc(Cl)c3)CC2)nc2ccccc12` [compound 352], 3 (Class 3: The value of percent of control at 10^−7 M was more than 60% or the value of IC50 was more than 200 nM.). The result for `Cc1noc(C)c1NC(=O)N[C@H]1CC[C@@H](Nc2nc(N(C)C)c3ccccc3n2)CC1` [compound 353, N-(cis-4-{[4-(dimethylamino)quinazolin-2-yl]amino}cyclohexyl)-N′-(3,5-dimethylisoxazol-4-yl)urea] reads 2 (Class 2: The value of percent of control at 10^−7 M was from 40% to 60% or the value of IC50 was from 50 nM to 200 nM.); that for `Cc1noc(-c2ccccc2)c1NC(=O)N[C@H]1CC[C@@H](Nc2nc(N(C)C)c3ccccc3n2)CC1` [compound 354, N-(cis-4-{[4-(dimethylamino)quinazolin-2-yl]amino}cyclohexyl)-N′-(3-methyl-5-phenylisoxazol-4-yl)urea], 1 (Class 1: The value of percent of control at 10^−7 M was less than 40% or the value of IC50 was less than 50 nM.); that for `Cc1onc(-c2ccccc2)c1NC(=O)N[C@H]1CC[C@@H](Nc2nc(N(C)C)c3ccccc3n2)CC1` [compound 355, N-(cis-4-{[4-(dimethylamino)quinazolin-2-yl]amino}cyclohexyl)-N′-(5-methyl-3-phenylisoxazol-4-yl)urea], 1 (Class 1: The value of percent of control at 10^−7 M was less than 40% or the value of IC50 was less than 50 nM.).

With `C#CCNC(=S)N[C@H]1CC[C@@H](Nc2nc(N(C)C)c3ccccc3n2)CC1` [compound 356], the class was 3 (Class 3: The value of percent of control at 10^−7 M was more than 60% or the value of IC50 was more than 200 nM.).

As to `CN(C)c1nc(N[C@H]2CC[C@@H](NC(=S)Nc3ccc(S(=O)(=O)N4CCCCC4)cc3)CC2)nc2ccccc12` [compound 357], the class is reported as 3 (Class 3: The value of percent of control at 10^−7 M was more than 60% or the value of IC50 was more than 200 nM.).

For the compound `CN(C)c1nc(N[C@H]2CC[C@@H](NC(=S)NCCC3=CCCCC3)CC2)nc2ccccc12` [compound 358], the class is 2 (Class 2: The value of percent of control at 10^−7 M was from 40% to 60% or the value of IC50 was from 50 nM to 200 nM.).
